This note sets out measurements from patent US20240300943A1, “NOVEL SALTS OF HETEROCYCLIC COMPOUND AS PROTEIN KINASE INHIBITOR AND USES THEREOF” (HK INNO.N CORPORATION, priority 2021, published 2024).

In one data set the target is T1, JAK3 (Homo sapiens, UniProt P52333).
T1 sequence (P52333 1-1124): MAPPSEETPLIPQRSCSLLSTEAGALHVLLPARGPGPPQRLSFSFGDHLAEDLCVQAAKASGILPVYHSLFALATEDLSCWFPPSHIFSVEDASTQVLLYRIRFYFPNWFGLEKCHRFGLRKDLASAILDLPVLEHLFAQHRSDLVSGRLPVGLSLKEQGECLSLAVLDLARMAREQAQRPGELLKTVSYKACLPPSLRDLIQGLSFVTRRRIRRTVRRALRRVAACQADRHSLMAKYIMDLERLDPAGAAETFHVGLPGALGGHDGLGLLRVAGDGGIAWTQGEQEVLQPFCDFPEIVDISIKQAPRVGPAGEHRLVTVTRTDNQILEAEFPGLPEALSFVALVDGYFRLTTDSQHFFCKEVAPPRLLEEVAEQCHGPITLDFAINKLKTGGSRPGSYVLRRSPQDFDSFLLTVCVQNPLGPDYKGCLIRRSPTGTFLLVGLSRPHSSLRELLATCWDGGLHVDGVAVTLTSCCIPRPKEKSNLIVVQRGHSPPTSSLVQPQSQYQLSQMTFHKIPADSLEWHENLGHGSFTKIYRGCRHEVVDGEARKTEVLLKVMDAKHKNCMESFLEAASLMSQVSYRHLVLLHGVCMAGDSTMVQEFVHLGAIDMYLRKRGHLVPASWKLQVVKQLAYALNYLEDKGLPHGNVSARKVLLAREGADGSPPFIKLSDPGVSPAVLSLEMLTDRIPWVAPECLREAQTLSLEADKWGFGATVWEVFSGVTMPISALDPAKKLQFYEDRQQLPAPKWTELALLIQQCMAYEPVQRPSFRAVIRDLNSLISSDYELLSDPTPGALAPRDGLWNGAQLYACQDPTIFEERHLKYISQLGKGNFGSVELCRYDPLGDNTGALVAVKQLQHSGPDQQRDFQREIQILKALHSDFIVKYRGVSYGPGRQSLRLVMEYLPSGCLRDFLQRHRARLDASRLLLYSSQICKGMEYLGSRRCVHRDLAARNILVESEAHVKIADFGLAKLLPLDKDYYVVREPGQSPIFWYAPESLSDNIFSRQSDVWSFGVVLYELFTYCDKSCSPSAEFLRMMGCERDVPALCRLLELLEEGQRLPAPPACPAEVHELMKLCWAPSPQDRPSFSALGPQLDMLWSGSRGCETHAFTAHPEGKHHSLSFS
Nature of the data set: ADP-Glo JAK3 kinase assay. In kind it is biochemical. As to conditions: read-out: IC50, In vitro enzyme JAK3. As for the experimental part:
10 mM of Compound 1 was diluted in DMSO to prepare samples at four concentrations (50,000 nM, 5,000 nM, 500 nM and 50 nM). 10 mM of ATP was diluted at 1/40 in 1× kinase buffer to make a preparation. 1 mg/mL of Poly (Glu4, Tyr1) peptide was used as a stock solution. 100 ng/μL of JAK3 enzyme was diluted at 1/20 in 1× kinase buffer to make a preparation. 1 μL of ATP, 1 μL of Poly (Glu4, Tyr1) peptide, and 1 μL of Compound 1 prepared as above were mixed, after which 2 μL of JAK3 enzyme was finally added and reacted at 30° C. for 40 minutes. At this time, a tube without JAK3 enzyme was prepared as a blank and a tube without Compound 1 was prepared as a positive control group together (a final concentration of samples was 10,000 nM, 1,000 nM, 100 nM, and 10 nM).
Then, 5 μL of ADP-glo was added to each tube and reacted at 30° C. for 40 minutes, after which 10 μL of kinase detection reagent was added thereto and reacted at room temperature for 15 minutes. After 18 μL of the reactant was transferred to a 384 well plate, luminescence was measured using a plate reader.
On the technique in general: ADP-Glo turns the ADP formed in a reaction into a luminescent signal.

The subject of another data set is JAK2, Tyk2. Nature of the data set: Human whole blood assay, JAK2, Tyk2. The conditions noted are these: cytokine-induced STAT phosphorylation. It counts as cell-based. As for the experimental part:
A stock solution of Compound 1 obtained according to Preparation Example 1 was diluted with distilled water and then serially diluted at ⅕ with 4% DMSO. 5 μL of test material was added to 100 μL of whole blood collected using a 1.7 mL eppendorf tube, mixed, and incubated at 37° C. for 45 minutes.
IL-6 (10 μg/ml) was diluted with 0.1% BSA/DW to reach 1 μg/mL each. 5 μL of IL-6 was added (at a final concentration of 50 ng/mL) and incubated at 37° C. for 15 minutes. At this time, 5 μL of DPBS was added as a non-stimulated control group. Lyse/fix buffer 5× was diluted 1× in distilled water and used. […]
For double staining of CD4 and pSTATI, anti-[…] and anti-pSTATI were mixed in a staining buffer and added to each of the samples. […] On the next day, the results were analyzed using FACSCanto II. […]
The numerical values analyzed by FlowJo were calculated to obtain IC50 values using GraphPad Prism 5 software (product name).
No treatment response (NTR) was set as a reference, and the degree of the phosphorylation of STAT induced by cytokines was converted into a relative ratio (% control group). A dose-response plot was obtained for each concentration-dependent activity of each test material using GraphPad Prism (version 5.0) and ICso values were calculated.

The subject of another data set is JAK1, 3. As to the kind of experiment: Human whole blood assay, JAK1, 3. In kind it is cell-based. The conditions noted are these: cytokine-induced STAT phosphorylation.
Data set [1] can be described thus: Physical stability evaluation under stress conditions. It counts as physicochemical. As for the experimental part:
In order to evaluate physical stability, samples were packaged in the form of ((LPDE+N2)+silica gel 1 g+LDPE)+Al-Bag, and stored under stress conditions (60° C.±2° C./80% RH±5%) for 2/4 weeks before evaluation.
In table 2, initial is a result measured after preparation of salts, and S2W and S4W are results measured after two and four weeks while being exposed to stress conditions, respectively.

As usually defined, the IC50 is the concentration that inhibits the measured activity by half. As for `C[C@@H]1CN(C(=O)CC#N)CC=C1c1cc(NC(=O)C2CC2)nc2[nH]ccc12` [Compound 1, (S)—N-(4-(1-(2-cyanoacetyl)-3-methyl-1,2,3,6-tetrahydropyridin-4-yl)-1H-pyrrolo[2,3-b]pyridin-6-yl)cyclopropanecarboxamide], the IC50 at JAK3 turned out to be 0.315 µM; with JAK2, Tyk2, 3.64 µM; in the data set with JAK1, 3, 0.544 µM.

As to `C[C@@H]1CN(C(=O)CC#N)CC=C1c1cc(NC(=O)C2CC2)nc2[nH]ccc12` [Example 3, (S)—N-(4-(1-(2-cyanoacetyl)-3-methyl-1,2,3,6-tetrahydropyridin-4-yl)-1H-pyrrolo[2,3-b]pyridin-6-yl)cyclopropanecarboxamide], in data set [1] (Initial), the C.I quantitative is on record as 24.0%; the “Content (anhydride, as anhydride)” value is recorded as 98.9%; the Moisture was determined as 0.2%; the “Purity: Individual related material” value is on record as 0.08%. In addition, in data set [1] (Initial), the “Purity: Total related material” value is 0.41%. In addition, in data set [1] (S2W: 2 weeks at 60° C./80% RH), the C.I quantitative turned out to be 24.1%; the “Content (anhydride, as anhydride)” value is recorded as 99.9%; the Moisture is 0.2%; the “Purity: Individual related material” value was determined as 0.08%. The “Purity: Total related material” value in data set [1] (S2W: 2 weeks at 60° C./80% RH) was 0.43%. In addition, in data set [1] (S4W: 4 weeks at 60° C./80% RH), the C.I quantitative came to 23.8%; the “Content (anhydride, as anhydride)” value is recorded as 99.9%; the Moisture worked out at 0.2%; the “Purity: Individual related material” value stood at 0.11%. The “Purity: Total related material” value in data set [1] (S4W: 4 weeks at 60° C./80% RH) is 0.53%.
